Ki data for two molecules are collected here from BindingDB's records for doi:10.1021/jm9602571 (Dupont Pharmaceuticals, 1996).

For the test, the target named is T1, Dimer of Gag-Pol polyprotein [501-599] (Human immunodeficiency virus 1, UniProt P03367).
T1 construct: 501-599
Put plainly: Protease Inhibition Assay. The conditions noted are these: pH 5.5; 37 °C.

In turn, `O=C1N(CC2CCCC2)[C@H](Cc2ccccc2)[C@H](O)[C@@H](O)[C@@H](Cc2ccccc2)N1CC1CCCC1` came in with a Ki of 4 nM. With `Nc1cccc(CN2C(=O)N(Cc3cccc(N)c3)[C@H](Cc3ccccc3)[C@H](O)[C@@H](O)[C@H]2Cc2ccccc2)c1` the figure was 0.34 nM.
